Reference: patent US5807891A, “Antiviral ethers of aspartate protease substrate isosteres” (priority 1994, dated 1998)
Where two headings read alike, the source gives them in different places.

Key:
[1] = system: H9/HIV-1/IIIB cells cocultured with CEM-SS cells; assay: Antiviral activity in coculture of CEM-SS cells and permanently infected H9/HIV-1/IIIB cells, RT activity; assay type: cell-based; conditions: Human immunodeficiency virus 1, IIIB, 96 h; for inhibition at 0.0125 µM: 12.5 nM
Method: The final concentration of free DMSO is less than 0.5%. When using cell lines: The cell lines are maintained in complete culture medium of the following composition: RPMI 1640 (GIBCO, Paisley, Scotland), supplemented with 10% foetal calf serum (SEROMED, Berlin, Germany), 10 mM 4-(2-hydroxyethyl)piperazine-1-ethanesulfonic acid(=HEPES) and 2 mM L-glutamine (AMIMED, Muttenz, Switzerland). […] The test compounds are tested as individual substances or as a combination of two active substances in defined concentration ratios. H9/HIV-1/IIIB cells are mixed, after having been washed twice and having been suspended in fresh medium, with CEM-SS cells in a ratio of 1:50. 100 μl of the cell mixture are dispensed into each well of 96-well tissue culture plates with the wells in each case containing 400 H9/HIV-1/IIIB cells and 2×10^4 CEM-SS cells. Immediately after the cells have been dispensed, two-fold serial dilutions of the test compounds are added (100 μl per well) in each case in sets of six. Instead of this, 100 μl of medium are added to each well for the virus control (VC); CEM-SS cells on their own (without H9/HIV-1/IIIB cells) are used as the control (CC). The final volume is 200 μl/well. […] The virus production is determined as the virus-associated activity of the reverse transcriptase (RT) in accordance with the following method, which has already been described above (see […]., et al., Antimicrob. Agent Chemother. 37(10), 2087-92 (1993)): When carrying out the measurement, 30 μl of reverse transcriptase cocktail are added to each well. The reverse transcriptase cocktail consists of 50 mM Tris (α,α,α-tris(hydroxymethyl)methylamine, Ultra pur, Merck, Germany), pH 7.8; 75 mM KCl, 2 mM dithiothreitol, 5 mM MgCl2; 0.1% Nonidet P-40 (detergent; Sigma, Switzerland), 0.8 mM EDTA, 10 μg/ml poly-A (Pharmacia, Uppsala, Sweden) and 0.16 μg/ml oligo(T)(=pdT(12-18), Pharmacia, Uppsala, Sweden) as template primer. The mixture is filtered through a 0.45 μm Acrodisc filter (Gelman Sciences Inc., Ann Arbor, U.S.A.) and stored at -20° C. […] After mixing, the plate is incubated at 37° C. for 1.5 h. 5 μl of the reaction mixture are transferred to DE81 paper (Whatman, one filter per well). The dried filters are washed three times for 5 min with 300 mM NaCl/25 mM trisodium citrate and then once with ethanol, and air-dried once again. The radioactivity on the filters is measured in a Packard Matrix 96-well counter (Packard, Zurich, Switzerland). The antiretroviral effect is given as the % reduction in RT activity as compared with the VC values. The activities of the individual compounds, and the combinations, mentioned in the title, in the coculture of the CEM-SS cell line and the permanently infected cell line H9/HIV-1/IIIB are determined using the method described above in association with the description of the pharmacological properties. The measurement result is expressed as % reduction of the reverse transcriptase (RT) activity. The results are presented in the following table; measurement results which confirm the occurrence of synergism are emphasized by underlining: […]

[2] = system: HIV-1/LAV in human peripheral mononuclear blood cells; assay: Antiviral activity in peripheral mononuclear blood cells infected with HIV-1, cumulative RT activity; assay type: cell-based
Excerpt: For the experiments using peripheral mononuclear blood cells, the cells are isolated from the blood of healthy HIV-seronegative human subjects using a combination of leukaphoresis and counter-current centrifugal elutriation in accordance with known methods (see Alteri, E., et al., Antimicrob. Agent Chemother. 37(10), 2087-92 (1993)).
The lymphocytotrophic isolate HIV-1/LAV (LAV.04/A.301), for example, is used as the virus (see Science 220, 868-71 (1983)).
The final concentration of free DMSO is less than 0.5%.
When peripheral mononuclear blood cells are used: The mixture of mononuclear cells (lymphocytes and monocytes), which is obtained as described above, is cultured, in the presence of 0.25 μg/ml phytohaemagglutinin (Wellcome Diagnostics, Temple Hill, Dartford, England), for two days in RPMI-1640 (GIBCO, Paisley, Scotland), 50 mU/ml penicillin, 50 μg/ml streptomycin (ANIMED, Muttenz, Switzerland), 2 mM L-glutamine (AMIMED, Muttenz, Switzerland) and 10 mM HEPES buffer (GIBCO, Paisley, Scotland). Successful activation is monitored by measuring the increase in cell size (scattergram, FCM analysis). The cells are resuspended in complete medium containing 10% human AB serum (Sigma, St. Louis, U.S.A.) and infected with HIV-1 for 6 h. After the viral adsorption, the cells are washed and resuspended in complete medium which is supplemented with 100 U/ml human recombinant IL-2 (Genzyme, Cambridge, U.S.A.). 9×10^4 cells are plated out per well (0.3 ml) in 96-well plates having U-shaped well bottoms. The antiviral compounds are added either alone or in combination to sets of five cell cultures in each case (pentaplicates) directly following the infection. Two thirds of the culture medium with or without antiviral compound(s) are replaced every three days. The test is concluded on day 13 after infection. The progress of the viral infection is measured by determining the RT activity as described above for the cell lines.
The activities of the individual compounds, and the combinations, specified in the title, in the peripheral mononuclear blood cell culture are determined using the method described above in association with the description of the pharmacological properties. The measurement result is expressed as the cumulative activity of the reverse transcriptase (RT), in cpm/1.25 μl (number of measured ^32 P disintegrations per 1.25 μl of test mixture and minute) on day 17 after the infection. […] The test compound(s) is/are re-added in associated with each change of the medium (on days 0, 3, 6, 10 and 13): […]

HIV protease = conditions: cited from earlier work
viral replication = conditions: cited from earlier work
[3] = system: CD4 lymphocytes in the blood; conditions: AIDS patients; cited from earlier work
[4] = in vivo, po; cited from earlier work
[5] = in vivo; cited from earlier work

Work on COCCNC(=O)[C@@H](NC(=O)[C@H](Cc1ccc(OC)c(OC)c1OC)C[C@H](O)[C@H](Cc1ccccc1)NC(=O)OC(C)(C)C)C(C)C [Example 47, 5(S)-(Boc-Amino)-4(S)-hydroxy-6-phenyl-2(R)-[(2,3,4-trimethoxyphenyl)methyl]hexanoyl-(L)-Val-N-(2-methoxyethyl)amide] yielded an inhibition at 0.003125 µM ([1]; 3.125 nM, coculture, day 4, read-out: % Inhibition of the RT activity by Example 47 title compound alone) of 2.7%, an inhibition at 0.00625 µM ([1]; 6.25 nM, coculture, day 4, read-out: % Inhibition of the RT activity by Example 47 title compound alone) of 1.3% and an inhibition at 0.0125 µM ([1]; coculture, day 4, read-out: % Inhibition of the RT activity by Example 47 title compound alone) of 52%. For the same compound, the “Cumulative RT activity on day 17 after the infection” value (“Cumulative RT activity” below) ([2]; Example 47 concentration 7.5 alone (unit not given)) was 7909 cpm/μl, the “Cumulative RT activity” value ([2]; Example 47 concentration 15 alone (unit not given)) was 9132 cpm/μl and the “Cumulative RT activity” value ([2]; Example 47 concentration 30 alone (unit not given)) was 8457 cpm/μl. The “Cumulative RT activity” value ([2]; Example 47 concentration 60 alone (unit not given)) was 1823 cpm/μl and the “Cumulative RT activity” value ([2]; Example 47 concentration 120 alone (unit not given)) was 49 cpm/μl.
CC(C)(C)NC(=O)[C@@H]1CN(Cc2cccnc2)CCN1C[C@@H](O)C[C@@H](Cc1ccccc1)C(=O)N[C@H]1c2ccccc2C[C@H]1O [Indinavir] gave an inhibition at 0.0125 µM ([1]; coculture, day 4, read-out: % Inhibition of the RT activity by Indinavir alone) of 3.2% and an inhibition at 0.025 µM ([1]; 25 nM, coculture, day 4, read-out: % Inhibition of the RT activity by Indinavir alone) of 59.7%.
CC(C)(C)NC(=O)[C@@H]1C[C@@H]2CCCC[C@@H]2CN1C[C@@H](O)[C@H](Cc1ccccc1)NC(=O)[C@H](CC(N)=O)NC(=O)c1ccc2ccccc2n1 [Saquinavir, N-tert-butyldecahydro-2-[2(R)-hydroxy-4-phenyl-3(S)-[[N-2-quinolylcarbonyl-L-asparaginyl]amino]butyl]-(4aS,8aS)-isoquinoline-3(S)-carboxamide] showed an inhibition at 0.00626 µM ([1]; read-out: % Inhibition of the RT activity by Saquinavir alone) of 93.8%, an inhibition at 0.00078 µM ([1]; read-out: % Inhibition of the RT activity by Saquinavir alone, 0.78 nM, coculture, day 4) of 6.6% and an inhibition at 0.00156 µM ([1]; read-out: % Inhibition of the RT activity by Saquinavir alone, 1.56 nM, coculture, day 4) of 14.7%. The inhibition at 0.003125 µM ([1]; read-out: % Inhibition of the RT activity by Saquinavir alone, 3.125 nM, coculture, day 4) was 39.3%, the “effect on HIV protease in vitro” value (HIV protease) was “inhibitory effect” and the “viral replication in cell experiments” value (viral replication) was “suppressed viral replication”. The “surrogate marker (titre of the CD4 lymphocytes in the blood)” value [3] was “first positive effects”, the blood levels [4] was “useful blood levels were achieved” and the blood levels [5] was “useful blood levels were also achieved”.
